The record followed here is publication PMC6742641, “Design, synthesis and biological evaluation of a series of CNS penetrant HDAC inhibitors structurally derived from amyloid-β probes” (Scientific Reports, 2019).

Entries after “also recorded” stand apart in the source; their conditions may differ. Where two headings read alike, the source gives them in different places.

The target of data set [1] is T1, HDAC3 (Homo sapiens, UniProt O15379).
T1 construct: purchased BPS Biosciences
Put plainly: HDAC activity assay (fluorimetric, BPS Biosciences). The conditions noted are these: class I; mean ± SD (n = 2). It counts as biochemical. How it is done: (§1) HDAC1, 3, 6 and 7 activity assays were performed according to the manufacturer’s protocol (BPS Biosciences). […] The HDAC assay developer was added to the mixture and incubated the plate at rt for 15 min. The fluorescence intensity was measured using a Tecan Infinite F200 Pro plate reader.

Data set [2] deals with T2, HDAC7 (Homo sapiens, UniProt Q8WUI4).
T2 construct: purchased BPS Biosciences
T2 sequence (Q8WUI4 1-952): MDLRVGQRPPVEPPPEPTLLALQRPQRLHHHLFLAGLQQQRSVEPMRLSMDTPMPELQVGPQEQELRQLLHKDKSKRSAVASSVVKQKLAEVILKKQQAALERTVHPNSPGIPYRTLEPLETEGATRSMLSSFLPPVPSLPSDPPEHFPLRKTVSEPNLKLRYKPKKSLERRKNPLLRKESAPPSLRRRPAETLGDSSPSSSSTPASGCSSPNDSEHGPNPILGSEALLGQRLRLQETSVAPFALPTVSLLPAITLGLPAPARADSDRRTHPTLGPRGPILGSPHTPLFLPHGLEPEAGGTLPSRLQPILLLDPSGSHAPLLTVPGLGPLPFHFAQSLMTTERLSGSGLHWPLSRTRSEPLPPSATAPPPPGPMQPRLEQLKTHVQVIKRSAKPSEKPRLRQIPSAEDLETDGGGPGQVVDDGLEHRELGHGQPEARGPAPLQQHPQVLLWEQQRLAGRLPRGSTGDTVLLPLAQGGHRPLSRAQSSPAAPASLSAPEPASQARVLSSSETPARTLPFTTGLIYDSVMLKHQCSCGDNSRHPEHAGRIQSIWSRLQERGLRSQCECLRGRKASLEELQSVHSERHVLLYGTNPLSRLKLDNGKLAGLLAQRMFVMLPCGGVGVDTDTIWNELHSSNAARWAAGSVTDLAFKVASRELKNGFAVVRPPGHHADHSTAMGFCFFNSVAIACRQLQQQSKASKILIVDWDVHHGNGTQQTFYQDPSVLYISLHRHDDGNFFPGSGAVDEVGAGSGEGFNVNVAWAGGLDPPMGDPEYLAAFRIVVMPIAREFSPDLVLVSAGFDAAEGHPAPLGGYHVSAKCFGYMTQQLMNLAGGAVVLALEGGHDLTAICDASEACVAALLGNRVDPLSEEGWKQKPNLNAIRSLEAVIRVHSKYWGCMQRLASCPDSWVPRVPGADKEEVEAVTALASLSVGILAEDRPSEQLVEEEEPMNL
Described as above. The conditions noted are these: class IIa in Table 4; mean ± SD (n = 2). The format is biochemical. How it is done: as §1

Data set [3] deals with T3, HDAC1 (Homo sapiens, UniProt Q13547).
T3 construct: purchased BPS Biosciences
T3 sequence (Q13547 whole entry): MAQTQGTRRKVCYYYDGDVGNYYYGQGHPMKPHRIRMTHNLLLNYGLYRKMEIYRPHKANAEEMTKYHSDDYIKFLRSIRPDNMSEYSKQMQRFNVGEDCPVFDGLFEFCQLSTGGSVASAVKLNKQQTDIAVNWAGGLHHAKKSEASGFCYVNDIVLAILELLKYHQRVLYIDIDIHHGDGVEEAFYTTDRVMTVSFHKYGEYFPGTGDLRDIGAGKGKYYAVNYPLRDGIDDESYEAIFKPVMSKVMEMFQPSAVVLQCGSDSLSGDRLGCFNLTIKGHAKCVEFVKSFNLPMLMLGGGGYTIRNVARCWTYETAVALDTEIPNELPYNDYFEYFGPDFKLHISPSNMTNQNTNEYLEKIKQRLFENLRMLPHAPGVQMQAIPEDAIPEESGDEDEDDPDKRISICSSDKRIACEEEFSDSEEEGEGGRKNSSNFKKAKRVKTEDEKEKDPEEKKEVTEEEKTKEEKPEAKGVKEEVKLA
Described as above. The format is biochemical. The conditions noted are these: class I; mean ± SD (n = 2). Here is the method:
as §1

For data set [4], the system named is SH-SY5Y cells. In words: Cell proliferation (anti-proliferation) assay, MTS. The format is cell-based, human. Here is the method: SH-SY5Y cells were grown in DMEM with L-glutamin supplemented with streptomycin ([…]), penicillin (100 units/mL), and 10% fetal bovine serum (FBS). Cells were grown to confluence in a humidified atmosphere (37 °C, 5% CO2).
SH-SY5Y cells (1.5 × 10^3 cells/well) were seeded in a clear 96-well plate, the medium volume was brought to 100 µL, and the cells were allowed to attach overnight. The next day, various concentrations of compounds or DMSO were added to the wells. Cells were then incubated at 37 °C for 24, 48 and 72 h. Cell viability was determined using the Promega Cell Titer 96 Aqueous One Solution cell proliferation assay. Absorbance at 490 nm was read on Tecan Infinite F200 Pro plate reader, and values were expressed as percent of absorbance from cells incubated in DMSO alone.

Data set [5] relates to Ac-Histone H3. Put plainly: Western blot of acetylation status in SH-SY5Y cells. The format is cell-based, human. As to conditions: 24 h, 0.5 to 5 μM. Here is the method:
(§2) Cells were seeded in 100 mm culture dishes (1 × 10^6 cells/dish), and allowed to attach overnight. Inhibitors were added at the concentrations as indicated and the cells were incubated for an additional 24 hours. For comparison, cells were also incubated with DMSO (0.5%) for 24 hours. Cells were harvested in ice-cold lysis buffer (23 mM Tris-HCl pH 7.6, 130 mM NaCl, 1% NP-40, 1% sodium deoxycholate, 0.1% SDS), and 30 µg of lysate per lane was separated by SDS-PAGE and followed by transferring to a PVDF membrane (Bio-Rad). The membrane was blocked with 5% skim milk in TBST, and then incubated with the corresponding antibody (Ac-α-tubulin, α-tubulin, Ac-Histone H3, Histone H3 or β-actin). After binding of an appropriate secondary antibody coupled to horseradish peroxidase, proteins were visualized by ECL chemiluminescence according to the instructions of the manufacturer (GE healthcare, USA).
(A western blot detects proteins with antibodies after separation by electrophoresis.)

In data set [6] the test system is Ac-α-tubulin. The description is as above. It counts as cell-based, human. The conditions noted are these: 24 h, 0.5 to 5 μM. Here is the method: as §2
Data set [7] relates to SH-SY5Y cells. In words: Soft agar colony formation assay. The format is cell-based, human. The conditions noted are these: 3 weeks, 3 μM. How it is done:
Cells (10^4 cells/well) were seeded in 6 well plate with 1.2% agar. After 12 h incubation, cells were treated with the indicated concentrations of compound 9b or DMSO at 37 °C in 5% humidified CO2 for 3 weeks with continuously changing medium every week. After medium was thrown away, colonies were stained with 0.05% crystal violet for 10 min.

A short description of data set [8]: In vivo brain pharmacokinetic study. As to conditions: ICR male mice, IV, 2 mg/kg. Here is the method: The study was approved by the Institutional Animal Care and Use of Committee of Daegu-Gyeongbuk Medical Innovation Foundation (DGMIF) and performed in accordance with protocols approved by the Institutional Animal Care and Use of Committee. […] Brain and plasma samples were collected at 0.5 and 1 h time points. Brain samples were homogenized at a 1:4 ratio of sample weight (g) to PBS volume (mL). Aliquots (20 μL) of brain homogenate were mixed with 180 μL of acetonitrile, vortexed and centrifuged at 15,000 rpm for 5 minutes at 4 °C. The resulting supernatants were used for LC-MS/MS analysis. Mice plasma samples were collected at 0.5 and 1 h time points. 180 μL of acetonitrile was added to 20 μL of plasma samples, vortexed and centrifuged at 15,000 rpm for 5 minutes at 4 °C.

Data set [9] is described as follows: PAMPA-BBB assay. The format is in vitro ADME. How it is done: BBB-PAMPA was conducted by manufacturer’s instruction (pION Inc, MA, USA). […] Transmembrane side to donor part was coated with BBB lipid solution and add 200 μL acceptor buffer in upper part of PAMPA sandwich plate.
(In general: The PAMPA barrier holds no transporters, so it reflects passive diffusion.)

T1 sequence (O15379 whole entry): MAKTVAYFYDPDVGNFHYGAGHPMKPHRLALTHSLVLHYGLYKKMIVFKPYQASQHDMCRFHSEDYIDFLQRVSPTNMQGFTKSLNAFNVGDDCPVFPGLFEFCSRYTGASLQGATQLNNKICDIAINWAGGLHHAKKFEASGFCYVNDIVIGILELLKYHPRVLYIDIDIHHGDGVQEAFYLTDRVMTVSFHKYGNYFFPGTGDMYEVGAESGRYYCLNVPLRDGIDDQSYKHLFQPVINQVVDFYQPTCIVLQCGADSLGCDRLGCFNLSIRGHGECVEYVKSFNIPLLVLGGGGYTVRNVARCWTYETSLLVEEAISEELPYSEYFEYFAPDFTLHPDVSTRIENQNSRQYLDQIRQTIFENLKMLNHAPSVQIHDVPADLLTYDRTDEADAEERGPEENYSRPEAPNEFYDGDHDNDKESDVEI
T1 sequence (Q9Y618 395-489 partner limits assumed): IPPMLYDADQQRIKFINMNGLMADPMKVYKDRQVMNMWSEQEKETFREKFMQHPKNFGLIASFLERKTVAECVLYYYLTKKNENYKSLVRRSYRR

As usually defined, the IC50 is the point on the concentration scale where inhibition reaches its midpoint. For orientation: GI50 means the concentration that inhibits growth by half. Read a high GI50 as less potent growth inhibition. For the molecule `O=C(NO)c1ccc(-c2nc3ccccc3s2)cc1` [Compound 9b], the IC50 in [1] was 0.142 ± 0.0457 µM; in data set [2], 3.04 µM; in data set [3] it was 0.0849 ± 0.0251 µM; in data set [4] (Homo sapiens, SH-SY5Y, Table 1 values IC50, read-out: anti-proliferative activity IC50 against SH-SY5Y cell line) it was 2.01 µM. The “SH-SY5Y cell growth impaired” value in data set [4] (5 μM, 72 hours) is roughly 73%. In [4] (Homo sapiens, SH-SY5Y neuroblastoma cell line, 72 h, mean ± SD (n = 4)), this molecule displayed a GI50 of 2.01 ± 0.33 µM. The “acetylation status of Histone H3” value in data set [5] is “more efficiently promoted the acetylation of Histone H3 and α-tubulin than compound 9a; also recorded: significantly induced the accumulation of acetylated Histone H3”. Further, the “acetylation status of α-tubulin” value in [6] is “more efficiently promoted the acetylation of Histone H3 and α-tubulin than compound 9a; also recorded: dose-dependently increased”. In addition, the “anchorage-independent cell growth (colony formation)” value in data set [7] is “almost completely inhibited”. Moreover, in data set [8] (0.5 h, n = 4), the “Brain concentration (ng/mL) 0.5 h” value came to 414.6 ± 88.7 ng/mL. Moreover, the “Brain concentration (ng/mL) 1 h” value in [8] (1 h, n = 4) is on record as 52.9 ± 1.6 ng/mL. Moreover, the Kp at 0.5 h in data set [8] (mouse, brain/plasma, 0.5 h, read-out: Brain/plasma ratio 0.5 h) was found to be 9. Moreover, the Kp at 1 h in data set [8] (mouse, brain/plasma, 1 h, read-out: Brain/plasma ratio 1 h) is 7.2. Moreover, the concentration at 0.5 h in data set [8] (mouse, brain, 0.5 h, n = 4, read-out: Brain concentration (ng/mL) 0.5 h) was 415 ng/mL; in data set [8] (mouse, plasma, 0.5 h, n = 4, read-out: Plasma concentration (ng/mL) 0.5 h), 46 ± 13.9 ng/mL. The concentration at 1 h worked out at 52.9 ng/mL in data set [8] (mouse, brain, 1 h, n = 4, read-out: Brain concentration (ng/mL) 1 h) and 7.3 ± 1 ng/mL in data set [8] (mouse, plasma, 1 h, n = 4, read-out: Plasma concentration (ng/mL) 1 h). Besides, the “Pe (10^−6 cm/s)” value in data set [9] (25 μM, pH 7.4, 4 h, 25 °C, mean ± SD, three independent experiments) is reported as 27.15 10^−6 cm/s. For the same molecule, in [9] (PAMPA-BBB), the “CNS +/− classification” value is “CNS + (CNS + indicates (Pe > 10))”. Moreover, the Papp at 4 h, 25 μM in [9] (PAMPA, 25 μM, pH 7.4, 4 h, 25 °C, mean ± SD, three independent experiments, read-out: Pe) stood at 27.1 ± 1.59 ×10⁻⁶ cm/s.
